Among the data in PubChem BioAssay AID330 (DTP/NCI, 2004) are T/C values, retold here.

This test deals with P388 leukemia ip, CD2F1 mice, survival T/C. The test is described as follows: NCI In Vivo Anticancer Drug Screen. Data for tumor model P388 Leukemia (intraperitoneal) in CD2F1 (CDF1) mice. To be noted: endpoint: median survival time, higher = longer survival. Put shortly:
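Mice carrying the transplanted tumor received test compound or vehicle. Survival was recorded in each group, and the value is the treated-group measurement divided by that of the vehicle-treated control group.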

Setting [1] is: dose: 50.0 mg/kg/injection, schedule: Q01DX009 (ip), vehicle: Klucel (hydroxypropylcellulose) (HPC).
[2] abbreviates: dose: 100.0 mg/kg/injection, schedule: Q01DX009 (ip), vehicle: Klucel (hydroxypropylcellulose) (HPC).
[3] abbreviates: dose: 200.0 mg/kg/injection, schedule: Q01DX009 (ip), vehicle: Klucel (hydroxypropylcellulose) (HPC).
Where [4] appears, read: dose: 50.0 mg/kg/injection, schedule: Q01DX009 (ip), vehicle: saline with Tween-80.
[5] abbreviates: dose: 100.0 mg/kg/injection, schedule: Q01DX009 (ip), vehicle: saline with Tween-80.
The mark [6] stands for this setting: dose: 200.0 mg/kg/injection, schedule: Q01DX009 (ip), vehicle: saline with Tween-80.
Where [7] appears, read: dose: 50.0 mg/kg/injection, schedule: Q01DX005 (ip), vehicle: saline.
The mark [8] stands for this setting: dose: 100.0 mg/kg/injection, schedule: Q01DX005 (ip), vehicle: saline.
The mark [9] stands for this setting: dose: 200.0 mg/kg/injection, schedule: Q01DX005 (ip), vehicle: saline.
Setting [10] is: dose: 60.0 mg/kg/injection, schedule: Q01DX005 (ip), vehicle: saline with Tween-80.
The mark [11] stands for this setting: dose: 120.0 mg/kg/injection, schedule: Q01DX005 (ip), vehicle: saline with Tween-80.
Where [12] appears, read: dose: 240.0 mg/kg/injection, schedule: Q01DX005 (ip), vehicle: saline with Tween-80.
Where [13] appears, read: dose: 50.0 mg/kg/injection, schedule: Q01DX009 (ip), vehicle: saline.
Where [14] appears, read: dose: 100.0 mg/kg/injection, schedule: Q01DX009 (ip), vehicle: saline.
Setting [15] is: dose: 200.0 mg/kg/injection, schedule: Q01DX009 (ip), vehicle: saline.
Where [16] appears, read: dose: 50.0 mg/kg/injection, schedule: Q01DX005 (ip), vehicle: Klucel (hydroxypropylcellulose) (HPC).
[17] abbreviates: dose: 100.0 mg/kg/injection, schedule: Q01DX005 (ip), vehicle: Klucel (hydroxypropylcellulose) (HPC).
The mark [18] stands for this setting: dose: 200.0 mg/kg/injection, schedule: Q01DX005 (ip), vehicle: Klucel (hydroxypropylcellulose) (HPC).
Setting [19] is: dose: 60.0 mg/kg/injection, schedule: Q01DX005 (ip), vehicle: Klucel (hydroxypropylcellulose) (HPC).
[20] abbreviates: dose: 120.0 mg/kg/injection, schedule: Q01DX005 (ip), vehicle: Klucel (hydroxypropylcellulose) (HPC).

Molecules are shown by their SMILES. Values joined by “and” are separate entries in the source; they are usually repeats but may differ in a detail not shown here. Identical values can stand only once. Toxic doses and inconclusive results are not listed.

With `CC1(C)Cc2oc(=O)n(-c3ccccc3)c(=O)c2C1`, the T/C was 100 % of control under setting [1], 102 % of control under setting [2] and 100 % of control under setting [3].

As to `CC(=O)O.CC(=O)O.[S-]CCN1CCOCC1.[Zn+2]`, the T/C runs as follows: (dose: 12.5 mg/kg/injection, schedule: Q01DX009 (ip), vehicle: Klucel (hydroxypropylcellulose) (HPC)) 100 % of control; (dose: 25.0 mg/kg/injection, schedule: Q01DX009 (ip), vehicle: Klucel (hydroxypropylcellulose) (HPC)) 102 % of control.

On to `CCC(C)N(CCCOC(=O)c1ccc(N)cc1)C(C)CC` (stereo not given), for which the T/C was 109 % of control (dose: 12.5 mg/kg/injection, schedule: Q01DX009 (ip), vehicle: saline with Tween-80); 100 % of control (dose: 12.5 mg/kg/injection, schedule: Q04DX003 (ip), vehicle: saline); 100 % of control (dose: 25.0 mg/kg/injection, schedule: Q01DX009 (ip), vehicle: saline with Tween-80); 91 % of control (dose: 25.0 mg/kg/injection, schedule: Q04DX003 (ip), vehicle: saline); 104 % of control under setting [4]; 91 % of control (dose: 50.0 mg/kg/injection, schedule: Q04DX003 (ip), vehicle: saline).

Turning to `CS(=O)C/C(=C/CCCl)c1ccc(F)cc1` (stereo not given), the T/C is 101 % of control under setting [4], 105 % of control under setting [5] and 96 % of control under setting [6].

Regarding `COc1ccc(C(C)c2cc3c(cc2OCC(=O)O)OCO3)cc1` (stereo not given), the T/C is, setting by setting: (dose: 50.0 mg/kg/injection, schedule: Q01DX005 (ip), vehicle: saline with Tween-80) 105 % of control; (dose: 100.0 mg/kg/injection, schedule: Q01DX005 (ip), vehicle: saline with Tween-80) 88 % of control; (dose: 200.0 mg/kg/injection, schedule: Q01DX005 (ip), vehicle: saline with Tween-80) 90 % of control.

With `COc1ccc(C(=O)/C=C/c2ccc(OC)c(OC)c2OC)c(O)c1`, the T/C by setting is: (dose: 100.0 mg/kg/injection, schedule: Q04DX003 (ip), vehicle: Klucel (hydroxypropylcellulose) (HPC)) 99 % of control; (dose: 200.0 mg/kg/injection, schedule: Q04DX003 (ip), vehicle: Klucel (hydroxypropylcellulose) (HPC)) 99 % of control; (dose: 400.0 mg/kg/injection, schedule: Q04DX003 (ip), vehicle: Klucel (hydroxypropylcellulose) (HPC)) 90 % of control.

As to `CC1CCCC(C2CCCCCCC2O)N1` (stereo not given), the T/C is, setting by setting: under setting [7], 100 % of control; under setting [8], 92 % of control; under setting [9], 97 % of control.

On to `O=S(=O)(Nc1ccccc1C(F)(F)F)c1ccc(F)cc1`, for which the T/C by setting is: under setting [10], 99 % of control; under setting [11], 100 % of control; under setting [12], 95 % of control.

Turning to `O=S(=O)(O)SCCCSS(=O)(=O)O`, the T/C is, setting by setting: under setting [13], 100 % of control; under setting [14], 99 % of control; under setting [15], 102 % of control.

As for `C[n+]1ccccc1-c1ccc[n+](CCCCC[n+]2cccc(-c3cccc[n+]3C)c2)c1`, the T/C under setting [7] was 100 % of control and 104 % of control; the T/C under setting [8] is 99 % of control and 104 % of control; the T/C under setting [9] was 107 % of control.

On to `C/C(CC/C(C)=N/N=C(\N)c1ccccn1)=N\N=C(/N)c1ccccn1`, for which the T/C was 99 % of control under setting [1], 98 % of control under setting [2] and 99 % of control under setting [3].

Take `NC(=S)SCCC(=O)N1CCCC1`: the T/C is 103 % of control (dose: 25.0 mg/kg/injection, schedule: Q01DX005 (ip), vehicle: Klucel (hydroxypropylcellulose) (HPC)); 97 % of control under setting [16]; 99 % of control under setting [17]; 101 % of control under setting [18].

For `C[N+](C)(C)NP(=O)(N[N+](C)(C)C)Oc1ccccc1`, the T/C (dose: 60.0 mg/kg/injection, schedule: Q01DX005 (ip), vehicle: saline) is 100 % of control and 110 % of control and 93 % of control; the T/C (dose: 120.0 mg/kg/injection, schedule: Q01DX005 (ip), vehicle: saline) was 103 % of control and 110 % of control (2×); the T/C (dose: 240.0 mg/kg/injection, schedule: Q01DX005 (ip), vehicle: saline) is 100 % of control and 104 % of control; the T/C (dose: 480.0 mg/kg/injection, schedule: Q01DX005 (ip), vehicle: saline) was 104 % of control and 95 % of control.

On to `CN(C)P1(=O)OCC(C)(C)CN1c1ccccc1` (stereo not given), for which the T/C reads like this: (dose: 100.0 mg/kg/injection, schedule: Q04DX002 (ip), vehicle: saline) 96 % of control; (dose: 200.0 mg/kg/injection, schedule: Q04DX002 (ip), vehicle: saline) 95 % of control; (dose: 400.0 mg/kg/injection, schedule: Q04DX002 (ip), vehicle: saline) 100 % of control.

In the case of `COc1ccc2[nH]c(=O)c(COC(C)=O)c(COC(C)=O)c2c1`, the T/C was 87 % of control under setting [16], 87 % of control under setting [17] and 97 % of control under setting [18].

Regarding `Cc1ncn[nH]1`, the T/C reads like this: under setting [14], 103 % of control; under setting [15], 106 % of control; (dose: 400.0 mg/kg/injection, schedule: Q01DX009 (ip), vehicle: saline) 100 % of control.

As to `CCOC(=O)C(C(=O)OCC)(C(=O)C(F)(F)C(F)(F)C(F)(F)C(F)(F)C(=O)C(C(=O)OCC)(C(=O)OCC)c1ccccc1)c1ccccc1`, the T/C is, setting by setting: under setting [10], 93 % of control; under setting [11], 98 % of control; under setting [12], 89 % of control.

`[CH3][Sn]([CH3])([CH3])[N]=C=[N][Sn]([CH3])([CH3])[CH3]`: the T/C runs as follows: (dose: 0.4 mg/kg/injection, schedule: Q01DX005 (ip), vehicle: saline) 100 % of control; (dose: 0.8 mg/kg/injection, schedule: Q01DX005 (ip), vehicle: saline) 101 % of control.

For the molecule `COc1ccc(-n2cnc3c(cnn3C)c2=O)cc1`, the T/C is, setting by setting: under setting [19], 100 % of control; under setting [20], 91 % of control.

For the molecule `CN1NC(c2ccccc2)NN(C)C1=S`, the T/C under setting [19] is 101 % of control; the T/C under setting [20] was 98 % of control; the T/C (dose: 240.0 mg/kg/injection, schedule: Q01DX005 (ip), vehicle: Klucel (hydroxypropylcellulose) (HPC)) is 106 % of control.

Take `CCOC(=O)c1cn(C(=O)CCl)c2ccccc2c1=O`: the T/C is 103 % of control under setting [10], 100 % of control under setting [11] and 97 % of control under setting [12].

In the case of `CC1C(c2ccccc2)OC2N1CN(C(C)(C)C)CC2(C)C` (stereo not given), the T/C runs as follows: under setting [4], 100 % of control; under setting [5], 104 % of control; under setting [6], 105 % of control.

`CP1(=S)CCC2=C1c1ccc(O)cc1CC2` (stereo not given): the T/C under setting [13] was 100 % of control, the T/C under setting [14] is 100 % of control and the T/C under setting [15] is 101 % of control.

Consider `COc1ccc(-c2c(N)cnc(C)c2C)c(OC)c1OC`, for which the T/C (dose: 12.5 mg/kg/injection, schedule: Q01DX009 (ip), vehicle: other) is 107 % of control; the T/C (dose: 25.0 mg/kg/injection, schedule: Q01DX009 (ip), vehicle: other) was 107 % of control; the T/C (dose: 50.0 mg/kg/injection, schedule: Q01DX009 (ip), vehicle: other) was 99 % of control; the T/C (dose: 100.0 mg/kg/injection, schedule: Q01DX009 (ip), vehicle: other) was 87 % of control.

Regarding `COc1cc2c(c(OC)c1O)-c1ccc(OC)c(=O)cc1[C@@H](NC(=O)C(F)(F)F)CC2`, the T/C was 157 % of control (dose: 2.5 mg/kg/injection, schedule: Q01DX009 (ip), vehicle: Klucel (hydroxypropylcellulose) (HPC)); 155 % of control (dose: 5.0 mg/kg/injection, schedule: Q01DX005 (ip), vehicle: Klucel (hydroxypropylcellulose) (HPC)); 159 % of control and 163 % of control (dose: 5.0 mg/kg/injection, schedule: Q01DX009 (ip), vehicle: Klucel (hydroxypropylcellulose) (HPC)); 155 % of control (dose: 10.0 mg/kg/injection, schedule: Q01DX005 (ip), vehicle: Klucel (hydroxypropylcellulose) (HPC)); 182 % of control (dose: 10.0 mg/kg/injection, schedule: Q01DX009 (ip), vehicle: Klucel (hydroxypropylcellulose) (HPC)).
